Like-named read-outs stand apart in the source and are kept apart here.
How the values were obtained:
Type in all cases: biochemical
p110δ/p85α = p110δ/p85α (Homo sapiens (Human), UniProt O00329); test: PI 3-Kinase (human) HTRF assay, p110δ/p85α; settings: read-out: PI3K δ IC50
p110α/p85α = p110α/p85α (Homo sapiens (Human), UniProt P42336); test: PI 3-Kinase (human) HTRF assay, p110α/p85α
p110γ = p110γ (Homo sapiens (Human), UniProt P48736); test: PI 3-Kinase (human) HTRF assay, p110γ
p110β/p85α = p110β/p85α (Homo sapiens (Human), UniProt P42338); test: PI 3-Kinase (human) HTRF assay, p110β/p85α; settings: read-out: PI3K β In Vitro IC50
Chain of p110β/p85α (P42338 whole entry): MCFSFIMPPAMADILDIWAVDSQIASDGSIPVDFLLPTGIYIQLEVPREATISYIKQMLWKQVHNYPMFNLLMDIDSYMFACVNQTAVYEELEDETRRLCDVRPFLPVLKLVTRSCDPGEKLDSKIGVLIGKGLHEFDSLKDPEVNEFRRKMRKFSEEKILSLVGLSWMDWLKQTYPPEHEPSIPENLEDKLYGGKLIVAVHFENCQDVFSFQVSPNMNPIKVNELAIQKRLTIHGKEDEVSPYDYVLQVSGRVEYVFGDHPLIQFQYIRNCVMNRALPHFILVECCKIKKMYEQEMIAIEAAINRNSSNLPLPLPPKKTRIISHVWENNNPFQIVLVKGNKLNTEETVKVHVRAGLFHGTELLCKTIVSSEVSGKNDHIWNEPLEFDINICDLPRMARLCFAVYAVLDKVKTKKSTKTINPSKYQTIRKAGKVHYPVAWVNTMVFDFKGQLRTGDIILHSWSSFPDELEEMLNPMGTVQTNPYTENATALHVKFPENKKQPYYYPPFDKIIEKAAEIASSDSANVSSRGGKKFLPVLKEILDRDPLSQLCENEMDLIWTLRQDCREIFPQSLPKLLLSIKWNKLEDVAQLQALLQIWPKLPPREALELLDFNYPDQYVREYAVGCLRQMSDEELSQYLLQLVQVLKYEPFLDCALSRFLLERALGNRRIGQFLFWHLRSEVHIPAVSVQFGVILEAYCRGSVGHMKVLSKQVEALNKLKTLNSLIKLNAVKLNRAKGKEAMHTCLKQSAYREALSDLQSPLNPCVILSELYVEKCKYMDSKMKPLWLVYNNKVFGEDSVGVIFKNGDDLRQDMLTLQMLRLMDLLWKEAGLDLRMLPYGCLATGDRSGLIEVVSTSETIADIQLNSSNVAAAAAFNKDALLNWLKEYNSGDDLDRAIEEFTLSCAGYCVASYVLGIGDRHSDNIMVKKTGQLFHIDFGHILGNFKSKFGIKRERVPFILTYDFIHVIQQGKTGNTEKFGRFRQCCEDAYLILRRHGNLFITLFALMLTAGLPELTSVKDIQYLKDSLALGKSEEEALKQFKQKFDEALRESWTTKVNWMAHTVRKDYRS
Chain of p110β/p85α (P27986 whole entry partner): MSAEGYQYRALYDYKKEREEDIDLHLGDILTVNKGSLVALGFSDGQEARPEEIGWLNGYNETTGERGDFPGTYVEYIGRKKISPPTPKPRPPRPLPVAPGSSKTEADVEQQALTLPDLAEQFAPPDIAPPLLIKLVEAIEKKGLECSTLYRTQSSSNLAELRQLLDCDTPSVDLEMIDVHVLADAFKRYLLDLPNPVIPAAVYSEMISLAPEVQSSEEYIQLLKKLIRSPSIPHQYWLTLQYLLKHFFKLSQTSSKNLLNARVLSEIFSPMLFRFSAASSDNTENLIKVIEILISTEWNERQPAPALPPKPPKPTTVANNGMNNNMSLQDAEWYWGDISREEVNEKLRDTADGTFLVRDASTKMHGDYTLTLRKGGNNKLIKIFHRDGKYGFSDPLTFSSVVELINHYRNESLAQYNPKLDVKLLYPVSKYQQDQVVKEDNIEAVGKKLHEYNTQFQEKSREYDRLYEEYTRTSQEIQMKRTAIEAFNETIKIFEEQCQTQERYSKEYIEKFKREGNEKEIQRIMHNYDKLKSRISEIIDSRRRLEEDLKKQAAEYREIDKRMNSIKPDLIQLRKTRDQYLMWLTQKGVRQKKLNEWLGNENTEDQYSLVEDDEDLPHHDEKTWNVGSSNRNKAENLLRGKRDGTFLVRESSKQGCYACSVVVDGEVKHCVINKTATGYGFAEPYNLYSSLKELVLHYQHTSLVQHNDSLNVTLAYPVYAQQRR

Chain of p110γ (P48736 whole entry): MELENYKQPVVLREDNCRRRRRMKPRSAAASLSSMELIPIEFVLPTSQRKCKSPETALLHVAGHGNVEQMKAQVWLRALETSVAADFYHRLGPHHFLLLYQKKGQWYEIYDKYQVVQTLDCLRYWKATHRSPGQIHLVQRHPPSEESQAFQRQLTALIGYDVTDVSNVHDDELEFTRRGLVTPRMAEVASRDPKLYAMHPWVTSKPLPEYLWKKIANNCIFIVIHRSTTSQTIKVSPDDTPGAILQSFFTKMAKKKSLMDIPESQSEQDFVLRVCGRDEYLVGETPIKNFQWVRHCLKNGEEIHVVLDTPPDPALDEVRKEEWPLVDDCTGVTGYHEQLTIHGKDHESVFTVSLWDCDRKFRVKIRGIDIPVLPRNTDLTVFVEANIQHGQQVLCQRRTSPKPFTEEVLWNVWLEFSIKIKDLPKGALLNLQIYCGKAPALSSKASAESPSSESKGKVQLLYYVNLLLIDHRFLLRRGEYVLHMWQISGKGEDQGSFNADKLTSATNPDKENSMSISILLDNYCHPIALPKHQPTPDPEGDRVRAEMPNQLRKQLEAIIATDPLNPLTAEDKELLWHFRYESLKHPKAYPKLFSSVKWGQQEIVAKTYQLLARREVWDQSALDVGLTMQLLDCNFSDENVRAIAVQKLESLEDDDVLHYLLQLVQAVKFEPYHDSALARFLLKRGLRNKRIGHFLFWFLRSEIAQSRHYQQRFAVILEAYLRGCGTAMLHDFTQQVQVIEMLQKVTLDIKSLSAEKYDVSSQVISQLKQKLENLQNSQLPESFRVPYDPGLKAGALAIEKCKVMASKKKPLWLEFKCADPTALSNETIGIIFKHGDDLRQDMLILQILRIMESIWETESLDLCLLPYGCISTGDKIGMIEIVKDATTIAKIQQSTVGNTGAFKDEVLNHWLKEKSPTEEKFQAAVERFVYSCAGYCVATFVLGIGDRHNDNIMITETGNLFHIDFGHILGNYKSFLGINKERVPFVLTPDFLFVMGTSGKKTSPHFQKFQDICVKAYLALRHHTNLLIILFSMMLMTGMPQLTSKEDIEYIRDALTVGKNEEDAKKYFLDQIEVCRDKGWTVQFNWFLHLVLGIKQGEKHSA
Chain of p110δ/p85α (O00329 whole entry): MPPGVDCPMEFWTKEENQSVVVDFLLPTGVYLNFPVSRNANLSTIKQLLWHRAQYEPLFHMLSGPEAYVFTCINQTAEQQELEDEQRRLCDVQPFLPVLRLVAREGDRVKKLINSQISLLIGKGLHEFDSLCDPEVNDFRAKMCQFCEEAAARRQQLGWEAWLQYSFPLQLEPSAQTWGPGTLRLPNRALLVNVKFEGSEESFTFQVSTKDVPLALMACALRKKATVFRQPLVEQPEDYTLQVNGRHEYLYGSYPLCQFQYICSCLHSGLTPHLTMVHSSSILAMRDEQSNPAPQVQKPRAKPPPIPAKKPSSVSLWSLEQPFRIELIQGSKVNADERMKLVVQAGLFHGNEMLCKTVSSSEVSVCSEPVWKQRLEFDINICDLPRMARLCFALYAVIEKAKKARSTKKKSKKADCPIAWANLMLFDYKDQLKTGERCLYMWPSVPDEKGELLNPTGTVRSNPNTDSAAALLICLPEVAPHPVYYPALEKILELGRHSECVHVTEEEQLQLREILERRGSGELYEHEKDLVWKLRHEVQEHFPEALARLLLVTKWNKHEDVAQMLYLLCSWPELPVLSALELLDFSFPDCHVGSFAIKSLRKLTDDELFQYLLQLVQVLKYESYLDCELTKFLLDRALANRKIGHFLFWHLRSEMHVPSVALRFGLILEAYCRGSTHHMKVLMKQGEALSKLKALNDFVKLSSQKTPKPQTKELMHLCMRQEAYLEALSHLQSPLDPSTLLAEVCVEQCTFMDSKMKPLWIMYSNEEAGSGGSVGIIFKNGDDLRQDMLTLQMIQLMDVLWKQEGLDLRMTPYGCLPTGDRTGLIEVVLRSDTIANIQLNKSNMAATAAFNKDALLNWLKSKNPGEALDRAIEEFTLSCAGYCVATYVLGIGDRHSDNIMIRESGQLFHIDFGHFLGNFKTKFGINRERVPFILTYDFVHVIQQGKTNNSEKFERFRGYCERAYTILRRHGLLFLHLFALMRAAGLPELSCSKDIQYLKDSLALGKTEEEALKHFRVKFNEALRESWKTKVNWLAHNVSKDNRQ
Chain of p110δ/p85α (P27986 whole entry partner): as the sequence (P27986 whole entry partner) above
Chain of p110α/p85α (P42336 whole entry): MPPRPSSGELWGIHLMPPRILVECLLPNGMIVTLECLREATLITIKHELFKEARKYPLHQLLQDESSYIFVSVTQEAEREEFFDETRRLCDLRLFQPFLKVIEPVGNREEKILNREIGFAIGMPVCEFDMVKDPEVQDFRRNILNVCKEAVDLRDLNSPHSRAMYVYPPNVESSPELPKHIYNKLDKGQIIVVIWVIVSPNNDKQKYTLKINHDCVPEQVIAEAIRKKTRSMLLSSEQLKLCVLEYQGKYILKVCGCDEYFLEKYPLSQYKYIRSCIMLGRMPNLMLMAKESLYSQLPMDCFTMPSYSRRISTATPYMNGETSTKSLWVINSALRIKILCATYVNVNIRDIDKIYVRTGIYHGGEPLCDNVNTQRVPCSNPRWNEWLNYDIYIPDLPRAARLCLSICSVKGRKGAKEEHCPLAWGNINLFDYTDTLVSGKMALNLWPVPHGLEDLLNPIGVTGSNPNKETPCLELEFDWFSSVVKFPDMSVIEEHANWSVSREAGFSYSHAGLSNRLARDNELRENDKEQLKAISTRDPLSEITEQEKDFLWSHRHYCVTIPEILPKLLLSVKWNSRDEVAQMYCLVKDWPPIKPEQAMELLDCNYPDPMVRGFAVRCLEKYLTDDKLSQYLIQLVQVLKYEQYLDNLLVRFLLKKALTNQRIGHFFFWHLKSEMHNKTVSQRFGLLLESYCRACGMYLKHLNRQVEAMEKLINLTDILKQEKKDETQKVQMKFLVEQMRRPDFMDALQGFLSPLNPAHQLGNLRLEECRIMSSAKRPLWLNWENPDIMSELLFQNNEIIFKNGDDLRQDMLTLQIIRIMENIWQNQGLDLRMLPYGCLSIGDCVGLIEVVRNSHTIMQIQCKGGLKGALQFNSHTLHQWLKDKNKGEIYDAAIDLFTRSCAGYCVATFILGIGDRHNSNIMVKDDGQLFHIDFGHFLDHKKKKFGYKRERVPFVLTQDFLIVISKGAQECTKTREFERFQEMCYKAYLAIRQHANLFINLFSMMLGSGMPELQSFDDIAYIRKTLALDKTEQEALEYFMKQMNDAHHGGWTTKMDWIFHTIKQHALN
Chain of p110α/p85α (P27986 whole entry partner): as the sequence (P27986 whole entry partner) above

| Structure (SMILES) | IC50 (p110δ/p85α) | IC50 (p110α/p85α; read-out: PI3K α IC50) | IC50 (p110γ; read-out: PI3K γ IC50) | IC50 (p110δ/p85α; in vitro) | IC50 (p110α/p85α; in vitro, read-out: PI3K α IC50) | IC50 (p110α/p85α; read-out: PI3K α In Vitro IC50) | IC50 (p110β/p85α) | IC50 (p110γ; read-out: PI3K γ In Vitro IC50) |
| --- | --- | --- | --- | --- | --- | --- | --- | --- |
| Nc1nc2cc(-c3ccc4nccc(CCN5CCOCC5)c4c3)ccc2o1 [compound 27] | < 10000 nM | < 1000 nM | < 100 nM |  |  |  |  |  |
| Nc1nc2cc(-c3ccc4nccc(N5CCOCC5)c4c3)ccc2o1 [compound 28] | < 1000 nM | < 100 nM | < 100 nM |  |  |  |  |  |
| Nc1nc2cc(-c3ccc4ncnc(N5CCC(O)CC5)c4c3)ccc2o1 [compound 29] | < 100 nM | < 100 nM | < 100 nM |  |  |  |  |  |
| CN1CCN(c2cc(-c3ccnc4ccc(-c5ccc6oc(N)nc6c5)cc34)ccn2)CC1 [compound 30] | < 100 nM | < 100 nM | < 100 nM |  |  |  |  |  |
| Nc1nc2cc(-c3ccc4nccc(-c5cccnc5)c4c3)ccc2o1 [compound 31] | < 100 nM | < 100 nM | < 100 nM |  |  |  |  |  |
| Nc1nc2cc(-c3ccc4nccc(NCCN5CCOCC5)c4c3)ccc2o1 [compound 33] | < 1000 nM | < 100 nM | < 1000 nM |  |  |  |  |  |
| CN1CCC(Oc2ncnc3ccc(-c4ccc5oc(N)nc5c4)cc23)CC1 [compound 34] | < 1000 nM | < 100 nM | < 100 nM |  |  |  |  |  |
| Nc1nc2cc(-c3ccc4ncc(-c5cccnc5)n4c3)ccc2o1 [compound 37] | < 100 nM | < 100 nM | < 100 nM |  |  |  |  |  |
| Nc1nc2cc(-c3ccc4ncc(-c5cn[nH]c5)n4c3)ccc2o1 [compound 38] | < 100 nM | < 100 nM | < 100 nM |  |  |  |  |  |
| Nc1nc2cc(-c3ccc4ncc(C#CC5CC5)n4c3)ccc2o1 [compound 39] | < 100 nM | < 100 nM | < 100 nM |  |  |  |  |  |
| CN1CCN(c2cc(-c3cnc4ccc(-c5ccc6oc(N)nc6c5)cn34)ccn2)CC1 [compound 43] | < 100 nM | < 100 nM | < 100 nM |  |  |  |  |  |
| Nc1nc2ccc(-c3ccc4ncc(C(=O)N5CCOCC5)n4c3)cc2s1 [compound 125] | < 10000 nM | < 1000 nM | < 1000 nM |  |  |  |  |  |
| Nc1nc2cc(-c3ccc4ncc(C(=O)Nc5cccnc5)n4c3)ccc2o1 [compound 190] | < 1000 nM | < 100 nM | < 100 nM |  |  |  |  |  |
| CCN(CC)CCCn1cnc2ccc(-c3ccc4oc(N)nc4c3)cc2c1=O [compound 281] |  |  |  | < 10000 nM | < 1000 nM |  |  |  |
| CC(=O)Nc1n[nH]c2cc(-c3ccc4oc(N)nc4c3)ccc12 [compound 430] |  |  |  |  |  | < 10000 nM | < 10000 nM | < 10000 nM |
| Nc1nc2cc(-c3cc(F)c4oc(N)nc4c3)ccc2o1 [compound 432] |  |  |  |  |  | < 10000 nM | < 1000 nM | < 100 nM |
| CC(=O)Nc1nc2cc(-c3cc(F)c4oc(N)nc4c3)ccc2s1 [compound 435] |  |  |  |  |  | < 10000 nM | < 10000 nM | < 100 nM |
| Nc1nc2cc(-c3ccc4sc(N)nc4c3)cc(F)c2o1 [compound 437] |  |  |  |  |  | < 10000 nM | < 1000 nM | < 1000 nM |
| Cc1cc(-c2ccc3nc(N)oc3c2)cn2c(C(=O)N3CCOCC3)cnc12 [compound 449] |  |  |  |  |  | < 1000 nM | < 1000 nM | < 100 nM |
| Nc1nc2cc(-c3ccc4ncc(C(=O)N5CC(F)C5)n4c3)ccc2o1 [compound 468] |  |  |  |  |  | < 100 nM | < 10000 nM | < 100 nM |
| Nc1nc2cc(-c3ccc4ncc(C(=O)N5CCn6cncc6C5)n4c3)ccc2o1 [compound 493] |  |  |  |  |  | < 100 nM | < 1000 nM | < 10000 nM |
| Nc1nc2cc(-c3ccc4ncc(C(=O)N5CC6(C5)OCCO6)n4c3)ccc2o1 [compound 494] |  |  |  |  |  | < 100 nM | < 10000 nM | < 1000 nM |
| C[C@@H]1COCCN1C(=O)c1cnc2ccc(-c3ccc4oc(N)nc4c3)cn12 [compound 495] |  |  |  |  |  | < 100 nM | < 10000 nM | < 1000 nM |
| Nc1nc2c(-c3ccc4ncc(C(=O)N5CCOCC5)n4c3)cccc2o1 [compound 496] |  |  |  |  |  | < 1000 nM | < 10000 nM | < 10000 nM |
| Nc1nc2cc(-c3ccc4ncc(C(=O)N5CC6CCC(C5)O6)n4c3)ccc2o1 [compound 504] |  |  |  |  |  | < 1000 nM | < 10000 nM | < 100 nM |

From patent US11547697B2, “Heterocyclic compounds and uses thereof” (MILLENNIUM PHARMACEUTICALS, INC., priority 2009, dated 2023)
